Assay results taken from US5045566A, “Novel imidate insecticides” (ICI Americas Inc., priority 1989, dated 1991).

Tests used:
Assay type in all cases: in vivo
[1] = system: Tobacco Budworm [Heliothis virescens (Fabricius)] eggs; assay: Tobacco budworm eggs (TBW-E); conditions: percent in solution; 2-day old eggs
How it was run: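 Mortality of dipped eggs served as read-out, recorded after untreated controls hatched and began feeding. Treatments used acetone solutions from 0.1% downward, with eggs incubated at 78° F; LC50 is expressed as percent of compound in the solution.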

[2] = system: Black Bean Aphid [Aphis fabae (Scop.)]; assay: Black bean aphid spray test on nasturtium (BBA), 48 hours; conditions: percent of test compound in sprayed solution
How it was run: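 LC50, given as percent test compound in the sprayed liquid, was calculated from dosage-mortality curves using concentrations from 0.05% downward. Sprays in 50:50 acetone-water went to runoff on ~5 cm nasturtiums carrying 25-50 aphids of mixed ages, one day after infestation. Deaths were counted 48 h later under greenhouse conditions.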

[3] = system: Cabbage Looper [Trichoplusia ni (Hubner)]; assay: Cabbage looper leaf dip (CL), 3-5 days; conditions: percent in solution, second-instar larvae
How it was run: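 Steps: dilute compound in 50-50 acetone-water from 0.1% downward; immerse cotyledon pieces 2-3 s and dry; place in humid petri dishes with five second-instar larvae; record mortality at 3-5 days. Dosage-mortality curves yield LC50 as percent in solution.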

[4] = system: Maize weevil [Sitophilus zeamais (Motschulsky)]; assay: Maize weevil on dipped corn seeds (MW), 48 hours; conditions: percent in solution, adult weevils
Description: The compounds in Tables 1 and 2 above were tested for insecticidal activity using the following testing procedures. LC50 values, based on the results of these tests and calculated according to dosage-mortality curves, are expressed in Table 3.
Maize weevil [Sitophilus zeamais (Motschulsky)]:
Test compounds were diluted in a 50:50 acetone:water solution. Four corn seeds [Zea mays (L.)] which had been immersed in test solutions for 2-3 seconds and allowed to dry were placed in containers together with 10 adult weevils. The containers were covered and kept at a temperature of about 25° C. Mortality was recorded after 48 hours. Test concentrations ranged from 0.01% down to that at which 50% mortality occurred. The LC50 values are expressed below in Table 3 under the heading "MW" in terms of percent of the test compound in solution.

[5] = system: Housefly [Musca domestica]; assay: Housefly contact mortality in dishes (HF), 48 hours; conditions: μg of test compound per 25 female flies
How it was run: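 LC50 (μg compound per 25 female flies) derives from dosage-mortality curves of 48 h kill. Flies, females 1-2 days old, were held 25 per cage over a dish coated with dried acetone deposit, starting at 100 μg per cage and descending.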

Compound | LC50 TBW E (eggs) [1] | LC50 BBA [2] | LC50 CL [3] | LC50 MW [4] | LC50 HF [5]
Clc1ccc(N=C(OCc2cccc(Oc3ccccc3)c2)C2CCC2)cc1 [Compound 8] | > 0.1% | 0.03% | 0.01% | > 0.01% | 50 µg
CC(C)C(=Nc1ccc(Br)c(F)c1)OCc1cccc(Oc2ccc(Cl)cc2)n1 [Compound 551] | 0.035% | 0.0006% | 0.00075% | > 0.01% | < 100 µg
CC(C)C(=Nc1ccc(Cl)c(C(F)(F)F)c1)OCc1ccc(F)c(Oc2ccccc2)c1 [Compound 388] | > 0.1% | 0.0006% | 0.0012% | > 0.01% | < 100 µg
CC(C)C(=Nc1ccc(Br)c(Br)c1)OCc1ccc(F)c(Oc2ccc(F)cc2)c1 [Compound 383] | 0.038% | 0.0006% | 0.00029% | > 0.01% | < 100 µg
CC(C)C(=Nc1cccc(I)c1)OCc1cccc(Oc2ccc(Cl)cc2)c1 [Compound 389] | > 0.1% | 0.003% | 0.00069% | > 0.01% | < 100 µg
Cc1cccc(N=C(OCc2ccc(F)c(Oc3ccc(Cl)cc3)c2)C(C)C)c1 [Compound 401] | 0.04% | 0.0006% | 0.0017% | > 0.01% | < 100 µg
CC(C)C(=Nc1ccc(C#N)cc1)OCc1ccc(F)c(Oc2ccc(Cl)cc2)c1 [Compound 392] | 0.039% | 0.001% | 0.00034% | > 0.01% | < 100 µg
COc1ccc(Oc2cccc(COC(=Nc3ccc(C(C)(C)C)cc3)C(C)C)c2)cc1 [Compound 345] | > 0.1% | 0.006% | 0.018% | > 0.01% | > 100 µg
CC(C)C(=Nc1ccc(F)c(I)c1)OCc1cccc(Oc2ccc(Cl)cc2)c1 [Compound 413] | 0.04% | > 0.05% | 0.0007% | > 0.01% | < 100 µg
CC(C)C(=Nc1ccc(Cl)c(C(F)(F)F)c1)OCc1cccc(Oc2ccccc2)n1 [Compound 555] | > 0.1% | 0.0035% | 0.002% | > 0.01% | < 100 µg
CC(C)C(=Nc1cccc(C(F)(F)F)c1)OCc1cc(Oc2ccccc2)ccn1 [Compound 506] | > 0.1% | 0.03% | 0.005% | > 0.01% | 40 µg
CC(C)C(=Nc1ccc(Cl)c(F)c1)OCc1ccc(F)c(Oc2ccc(F)cc2)c1 [Compound 441] | 0.016% | 0.0003% | 0.000025% | 0.006% | < 100 µg
C=C(C)C(=Nc1ccc(C(F)(F)F)cc1)OCc1cccc(Oc2ccc(Cl)cc2)n1 [Compound 560] | < 0.1% | 0.0025% | 0.0015% | > 0.01% | < 100 µg
CC(C)C(=Nc1ccc(F)c(Cl)c1)OCc1cccc(Oc2c(F)c(F)c(F)c(F)c2F)c1 [Compound 460] | > 0.1% | > 0.05% | 0.02% | > 0.01% | > 100 µg
CCOc1ccc(N=C(OCc2ccc(F)c(Oc3ccc(Cl)cc3)c2)C(C)C)cc1 [Compound 372] | > 0.1% | 0.001% | > 0.1% | > 0.01% | > 100 µg
CC(C)C(=Nc1ccc(C#N)cc1)OCc1cccc(Oc2ccc(Cl)cc2)c1 [Compound 393] | > 0.1% | > 0.05% | 0.00037% | > 0.01% | < 100 µg
CC(C)C(=Nc1cccc(C(F)(F)F)c1)OCc1cc(Oc2ccc(Cl)cc2)ccn1 [Compound 509] | > 0.1% | > 0.05% | 0.0075% | > 0.01% | 79 µg
CCc1ccc(N=C(OCc2cccc(Oc3ccc(F)cc3)c2)C(C)C)cc1Cl [Compound 438] | < 0.1% | 0.0003% | 0.0009% | > 0.01% | > 100 µg
CC(C)C(=Nc1ccc2c(c1)OC(F)(F)O2)OCc1cccc(Oc2ccccc2)n1 [Compound 556] | 0.04% | 0.0035% | 0.0007% | > 0.01% | < 100 µg
Cc1cccc(N=C(OCc2cccc(Oc3ccc(F)cc3)c2)C(C)C)c1 [Compound 405] | > 0.1% | 0.0025% | > 0.1% | > 0.01% | < 100 µg
CCOc1ccc(N=C(OCc2cccc(Oc3ccccc3)c2)C(C)C)cc1Cl [Compound 368] | 0.04% | 0.001% | 0.002% | > 0.01% | < 100 µg
CC(C)C(=Nc1cccc(Br)c1)OCc1ccc(F)c(Oc2ccc(Cl)cc2)c1 [Compound 386] | > 0.1% | 0.002% | 0.0012% | > 0.01% | < 100 µg
CC(C)C(=Nc1cccc(F)c1)OCc1ccc(F)c(Oc2ccc(F)cc2)c1 [Compound 342] | 0.04% | 0.0006% | 0.0008% | > 0.01% | 4.1 µg
CC(C)C(=Nc1ccc(C(F)(F)F)cc1Cl)OCc1ccc(F)c(Oc2ccccc2)c1 [Compound 428] | > 0.1% | 0.003% | 0.0017% | > 0.01% | > 100 µg
CC(C)C(=Nc1ccc(F)c(Cl)c1F)OCc1ccc(F)c(Oc2ccc(Cl)cc2)c1 [Compound 395] | 0.018% | 0.0001% | < 0.1% | 0.004% | 8.6 µg
C=C(C)C(=Nc1ccc(C(F)(F)F)cc1)OCc1cccc(Oc2ccc(F)cc2)c1 [Compound 442] | 0.035% | 0.001% | 0.0007% | > 0.01% | < 100 µg
CC(C)C(=Nc1ccc(C(F)(F)F)cc1[N+](=O)[O-])OCc1ccc(F)c(Oc2ccccc2)c1 [Compound 445] | > 0.1% | 0.001% | 0.00045% | > 0.01% | < 100 µg
CC(C)C(=Nc1ccc(C#N)cc1)OCc1ccc(F)c(Oc2ccc(F)cc2)c1 [Compound 394] | 0.05% | 0.002% | 0.00025% | > 0.01% | < 100 µg
